These molecules were tested against T1, human PI 3-kinase p120γ (Homo sapiens, UniProt P48736) (assay: PI 3-kinase p120γ enzyme activity inhibition test). Conditions: ATP 10.0 μM, PIP2-PS 5.0 μM, 30° C., 2 hours; read-out: PI3Kγ (IC50 value class).
T1 construct: purchased Millipore Corporation
Type: biochemical
Description: Using human PI 3-kinase p120γ (manufactured by Millipore Corporation) and a mixed micellized product (hereinafter abbreviated as PIP2-PS) of the substrate thereof, L-a-Phosphatidyl-D-myo-inositol-4,5-bisphosphate (product of Calbiochem, hereinafter abbreviated as PIP2), and L-a-Phosphatidyl-L-Serine (manufactured by Sigma, hereinafter abbreviated as PS), the compound of the present invention was examined for the inhibitory action on PI3 Kinase p120γ enzyme activity (Km=8.9 μM for ATP, Km=4.0 μM for PIP2-PS).
PIP2-PS was prepared by mixing 500 μM of PIP2 and 2.5 nM of PS and sonicating the mixture for 40 minutes while ice cooling to cause micellization. ATP (final concentration 10.0 μM), [γ-^33P] ATP (final concentration 10 μCi/ml), PIP2-PS (final concentration 5.0 μM) and DMSO solutions of the test compound in different concentrations (compound final concentration 1.0×10^−5 to 2.4×10^−12 M, DMSO final concentration 0.1%) were added to PI 3-kinase p120γ, stirred and reacted at 30° C. for 2 hours. Using Phospholipid-Coated FlashPlate Microplates, 96-Well and Phospholipid FlashPlate Coating Buffer (both manufactured by PerkinElmer Co., Ltd.), PIP2-PS and phosphorylated PIP2-PS were allowed to be adsorbed to the well wall of the plate and collected. The well was washed twice with PBS (Phosphate-Buffered Saline) and dried. The radioactivity was measured using Top Count NXT (manufactured by PerkinElmer Co., Ltd.), whereby the phosphorylated amount (a) of PIP2-PS at the time of compound addition was calculated.
The same procedure was carried out in the absence of the test compound and the phosphorylated amount (b) of PIP2-PS was calculated. Further, the same procedure was carried out in the absence of both of the substrate and the test compound, and the PIP2-PS phosphorylated amount (c) of the background was calculated.
The PI3 Kinase p120γ enzyme activity suppression rate of the compound was calculated by the following formula. Suppression rate (%)=[1−(a−c)/(b−c)]×100
More specifically, using the suppression rate by the test compound of different concentrations, the IC50 value was calculated according to the dose-dependent inhibition curve analyzed by a data analysis software Origin (Lightstone Corp.) and used as the inhibitory activity index.

T1 sequence (P48736 whole entry): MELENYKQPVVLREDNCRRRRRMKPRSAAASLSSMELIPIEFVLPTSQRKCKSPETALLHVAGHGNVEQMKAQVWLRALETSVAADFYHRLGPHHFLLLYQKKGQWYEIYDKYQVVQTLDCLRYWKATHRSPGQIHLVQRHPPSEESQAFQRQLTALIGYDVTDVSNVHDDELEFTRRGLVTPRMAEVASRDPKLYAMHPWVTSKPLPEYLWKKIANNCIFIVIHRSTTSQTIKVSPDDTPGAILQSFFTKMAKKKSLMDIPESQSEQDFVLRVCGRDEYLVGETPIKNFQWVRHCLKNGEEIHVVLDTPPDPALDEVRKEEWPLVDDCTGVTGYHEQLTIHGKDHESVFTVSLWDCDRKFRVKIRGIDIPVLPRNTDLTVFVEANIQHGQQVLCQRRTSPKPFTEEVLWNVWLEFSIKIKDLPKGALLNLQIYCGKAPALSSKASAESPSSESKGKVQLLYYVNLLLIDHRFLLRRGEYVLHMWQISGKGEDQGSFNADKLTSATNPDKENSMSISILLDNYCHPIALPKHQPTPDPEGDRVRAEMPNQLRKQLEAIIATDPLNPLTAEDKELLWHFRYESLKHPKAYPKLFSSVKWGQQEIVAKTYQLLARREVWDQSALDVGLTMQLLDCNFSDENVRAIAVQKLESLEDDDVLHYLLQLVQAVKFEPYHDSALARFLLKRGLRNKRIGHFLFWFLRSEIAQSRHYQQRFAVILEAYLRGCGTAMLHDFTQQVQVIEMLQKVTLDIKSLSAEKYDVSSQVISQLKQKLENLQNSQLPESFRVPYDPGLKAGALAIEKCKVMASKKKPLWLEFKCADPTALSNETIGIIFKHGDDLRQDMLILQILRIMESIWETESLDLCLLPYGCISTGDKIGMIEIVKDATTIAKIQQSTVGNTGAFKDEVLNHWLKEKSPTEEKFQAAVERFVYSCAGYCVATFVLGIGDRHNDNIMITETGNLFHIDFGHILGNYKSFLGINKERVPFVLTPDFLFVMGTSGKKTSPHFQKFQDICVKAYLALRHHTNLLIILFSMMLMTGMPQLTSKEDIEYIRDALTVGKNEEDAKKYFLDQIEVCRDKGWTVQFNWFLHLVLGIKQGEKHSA

Q: For `CC(=O)Nc1nc(C)c(-c2nc(CC(C)(C)C(N)=O)no2)s1` [Example 111], which IC50 is on record?
A: < 0.1 µM

Q: For `Cc1nc(NC(=O)NCCC(=O)O)sc1-c1nc(-c2cccnc2)no1` [Example 136], which IC50 is on record?
A: < 0.1 µM

Q: With `Cc1nc(NC(=O)NCCC(=O)NC(C)(C)C)sc1-c1nc(CC(C)(C)CO)no1` [Example 161] as the molecule, how does the IC50 read?
A: < 0.1 µM

Q: With `Cc1nc(N)sc1-c1nc(C(C)(C)C)no1` [Example 114] as the molecule, how does the IC50 read?
A: < 0.1 µM

Q: `Cc1nc(NC(=O)NCCC(=O)OCCO)sc1-c1nc(-c2cccnc2)no1` [Example 151] was tested. Which IC50 did it give?
A: < 0.1 µM

Q: For `CC(=O)Nc1nc(C)c(-c2nc(C(=O)NCC(C)O)no2)s1` (stereo not shown) [Example 91], which IC50 is on record?
A: 0.1 to 0.5 µM

Q: Which IC50 does the source give for `CC(=O)Nc1nc(C)c(-c2nc(Cn3cccn3)no2)s1` [Example 99] here?
A: 0.5 to 10 µM

Q: How did the IC50 turn out when `COCCc1noc(-c2sc(NC(C)=O)nc2C)n1` [Example 22] was run?
A: 0.1 to 0.5 µM

Q: Which IC50 does the source give for `CC(=O)Nc1nc(C)c(-c2nc(C(C)NC(=O)OC(C)(C)C)no2)s1` (stereo not shown) [Example 74] here?
A: 0.5 to 10 µM

Q: Which IC50 does the source give for `CC(=O)Nc1nc(C)c(-c2nc(CC3(CO)CC3)no2)s1` [Example 48] here?
A: < 0.1 µM

Q: How did the IC50 turn out when `CC(=O)Nc1nc(C)c(-c2nc(CC(C)(C)CNS(C)(=O)=O)no2)s1` [Example 44] was run?
A: < 0.1 µM

Q: For `CC(=O)Nc1nc(C)c(-c2nc(-c3cccnc3C)no2)s1` [Example 6], which IC50 is on record?
A: < 0.1 µM

Q: `CC(=O)Nc1nc(C)c(-c2nc(-c3ccc(=O)n(C)c3)no2)s1` [Example 39] was tested. Which IC50 did it give?
A: 0.1 to 0.5 µM

Q: With `CC(=O)Nc1nc(C)c(-c2nc([C@H]3CCCO3)no2)s1` [Example 92] as the molecule, how does the IC50 read?
A: 0.1 to 0.5 µM

Q: For `CC(=O)Nc1nc(C)c(-c2nc([C@H](O)C(C)(C)C)no2)s1` [Example 69], which IC50 is on record?
A: < 0.1 µM

Q: Which IC50 does the source give for `CC(=O)Nc1nc(C)c(-c2nc(C(=O)NC3COC3)no2)s1` [Example 96] here?
A: 0.1 to 0.5 µM

Q: For `COCC(=O)Nc1nc(C)c(-c2nc(-c3cccnc3)no2)s1` [Example 116], which IC50 is on record?
A: < 0.1 µM

Q: Which IC50 does the source give for `Cc1nc(NC(=O)NCCN2CCOCC2)sc1-c1nc(-c2cccnc2)no1` [Example 121] here?
A: < 0.1 µM

Q: Which IC50 does the source give for `CC(=O)Nc1nc(C)c(-c2nc(C(C)=O)no2)s1` [Example 60] here?
A: < 0.1 µM

Q: With `Cc1nc(NC(=O)NCCC(=O)OC(C)(C)C)sc1-c1nc(C2CCCCC2)no1` [Example 153] as the molecule, how does the IC50 read?
A: < 0.1 µM

Q: For `CCC(O)C(C)(C)Cc1noc(-c2sc(NC(C)=O)nc2C)n1` (stereo not shown) [Example 97], which IC50 is on record?
A: < 0.1 µM

Q: `Cc1nc(NC(=O)NCC(=O)OC(C)(C)C)sc1-c1nc(-c2cccnc2)no1` [Example 126] was tested. Which IC50 did it give?
A: < 0.1 µM

Q: How did the IC50 turn out when `COCCNC(=O)Nc1nc(C)c(-c2nc(-c3cccnc3)no2)s1` [Example 122] was run?
A: < 0.1 µM

Q: Which IC50 does the source give for `CC(=O)Nc1nc(C)c(-c2nc(-c3ccccn3)no2)s1` [Example 10] here?
A: 0.1 to 0.5 µM

Q: With `Cc1nc(N)sc1-c1nc(CC(F)(F)F)no1` [Example 146] as the molecule, how does the IC50 read?
A: < 0.1 µM

Q: Which IC50 does the source give for `Cc1nc(NC(=O)NCCC(=O)OC(C)(C)C)sc1-c1nc(CC(F)(F)F)no1` [Example 147] here?
A: < 0.1 µM

Q: For `CC(=O)Nc1nc(C)c(-c2nc(C3CCCC3)no2)s1` [Example 18], which IC50 is on record?
A: < 0.1 µM

Q: With `CC(=O)Nc1nc(C)c(-c2nc(CC(C)(C)C(O)c3ccccc3)no2)s1` (stereo not shown) [Example 100] as the molecule, how does the IC50 read?
A: 0.1 to 0.5 µM

Q: Which IC50 does the source give for `CC(=O)Nc1nc(C)c(-c2nc(-c3cccc(CCO)c3)no2)s1` [Example 28] here?
A: < 0.1 µM

Q: For `COC(Cc1noc(-c2sc(NC(C)=O)nc2C)n1)OC` [Example 52], which IC50 is on record?
A: 0.5 to 10 µM

Q: Which IC50 does the source give for `Cc1nc(NC(=O)NCCO)sc1-c1nc(-c2cccnc2)no1` [Example 120] here?
A: < 0.1 µM

Q: Which IC50 does the source give for `CC(=O)Nc1nc(C)c(-c2nc(-c3ccccc3)no2)s1` [Example 7] here?
A: < 0.1 µM

Q: Which IC50 does the source give for `C=Cc1noc(-c2sc(NC(C)=O)nc2C)n1` [Example 35] here?
A: 0.1 to 0.5 µM

Q: Which IC50 does the source give for `Cc1nc(NC(=O)NCCCOC(C)(C)C)sc1-c1nc(CC(C)(C)CO)no1` [Example 160] here?
A: < 0.1 µM

Q: `Cc1nc(NC(N)=O)sc1-c1nc(-c2cccnc2)no1` [Example 124] was tested. Which IC50 did it give?
A: < 0.1 µM

Q: Which IC50 does the source give for `COC(=O)c1cncc(-c2noc(-c3sc(NC(C)=O)nc3C)n2)c1` [Example 37] here?
A: < 0.1 µM

Q: How did the IC50 turn out when `Cc1nc(NC(=O)NCCC(=O)OC(C)(C)C)sc1-c1nc(-c2cncnc2)no1` [Example 141] was run?
A: < 0.1 µM

Q: `Cc1nc(NC(=O)NCCC(=O)N2CCC(O)CC2)sc1-c1nc(CC(F)(F)F)no1` [Example 166] was tested. Which IC50 did it give?
A: < 0.1 µM

Q: For `CCOC(=O)CCNC(=O)Nc1nc(C)c(-c2nc(-c3cccnc3)no2)s1` [Example 119], which IC50 is on record?
A: < 0.1 µM

Q: How did the IC50 turn out when `Cc1nc(NC(=O)NCCN)sc1-c1nc(-c2cccnc2)no1` [Example 138] was run?
A: < 0.1 µM

Q: `CC(=O)Nc1nc(C)c(-c2nc(CC(C)(CO)CO)no2)s1` [Example 42] was tested. Which IC50 did it give?
A: < 0.1 µM

Q: With `CC(=O)Nc1nc(C)c(-c2nc(-c3cncc(O)c3)no2)s1` [Example 32] as the molecule, how does the IC50 read?
A: < 0.1 µM

Q: Which IC50 does the source give for `CC(=O)Nc1nc(C)c(-c2nc(Cc3cccc(O)c3)no2)s1` [Example 49] here?
A: 0.1 to 0.5 µM

Q: For `CC(=O)Nc1nc(C)c(-c2nc(N3CC[C@H](O)C3)no2)s1` [Example 102], which IC50 is on record?
A: 0.1 to 0.5 µM

Q: How did the IC50 turn out when `Cc1nc(NC(=O)NCCNC(=O)OC(C)(C)C)sc1-c1nc(-c2cccnc2)no1` [Example 134] was run?
A: < 0.1 µM

Q: With `CC(=O)Nc1nc(C)c(-c2nc(CC(C)C)no2)s1` [Example 20] as the molecule, how does the IC50 read?
A: < 0.1 µM

Q: Which IC50 does the source give for `Cc1nc(NC(=O)NCCC(=O)NC(C)(C)CO)sc1-c1nc(-c2cccnc2)no1` [Example 149] here?
A: < 0.1 µM

Q: For `CC(=O)Nc1nc(C)c(-c2nc(-c3cnccc3C)no2)s1` [Example 14], which IC50 is on record?
A: < 0.1 µM

Q: For `COC(=O)CCc1noc(-c2sc(NC(C)=O)nc2C)n1` [Example 71], which IC50 is on record?
A: 0.1 to 0.5 µM

Q: Which IC50 does the source give for `CC(=O)Nc1nc(C)c(-c2nc(CC3(C)COC3)no2)s1` [Example 41] here?
A: < 0.1 µM

Q: How did the IC50 turn out when `CC(=O)Nc1nc(C)c(-c2nc(-c3cnccn3)no2)s1` [Example 23] was run?
A: < 0.1 µM

Q: With `CC(=O)Nc1nc(C)c(-c2nc(C(C)(C)CO)no2)s1` [Example 65] as the molecule, how does the IC50 read?
A: < 0.1 µM

Q: With `Cc1nc(NC(=O)NCCC(=O)OC(C)(C)C)sc1-c1nc(-c2cccnc2)no1` [Example 117, Tert-butyl N-({4-methyl-5-[3-(pyridin-3-yl)-1,2,4-oxadiazol-5-yl]-1,3-thiazol-2-yl}carbamoyl)-β-alaninate] as the molecule, how does the IC50 read?
A: < 0.1 µM

Q: Which IC50 does the source give for `COc1ncccc1-c1noc(-c2sc(NC(C)=O)nc2C)n1` [Example 16] here?
A: < 0.1 µM

Q: With `CC(=O)Nc1nc(C)c(-c2nc(CC3CCOCC3)no2)s1` [Example 45] as the molecule, how does the IC50 read?
A: 0.1 to 0.5 µM

Q: `CC(=O)Nc1nc(C)c(-c2nc(-c3ccccc3CO)no2)s1` [Example 29] was tested. Which IC50 did it give?
A: < 0.1 µM

Q: For `CC(=O)Nc1nc(C)c(-c2nc(C3CCC3)no2)s1` [Example 26], which IC50 is on record?
A: < 0.1 µM

Q: How did the IC50 turn out when `CCOC(=O)C(C)(C)Cc1noc(-c2sc(NC(C)=O)nc2C)n1` [Example 105] was run?
A: 0.1 to 0.5 µM

Q: How did the IC50 turn out when `CC(=O)Nc1nc(C)c(-c2nc(Cc3cccc(CO)c3)no2)s1` [Example 36] was run?
A: 0.5 to 10 µM

Q: For `CCOC(=O)c1noc(-c2sc(NC(C)=O)nc2C)n1` [Example 55, Ethyl-5-[2-(acetylamino)-4-methyl-1,3-thiazol-5-yl]-1,2,4-oxadiazol-3-carboxylate], which IC50 is on record?
A: 0.1 to 0.5 µM

Q: With `CC(=O)Nc1nc(C)c(-c2nc(C3CCCCC3)no2)s1` [Example 9] as the molecule, how does the IC50 read?
A: < 0.1 µM

Q: With `CC(=O)Nc1nc(C)c(-c2nc(-c3ccc(=O)[nH]c3)no2)s1` [Example 40] as the molecule, how does the IC50 read?
A: 0.1 to 0.5 µM

Q: Which IC50 does the source give for `CC(=O)Nc1nc(C)c(-c2nc(CC(C)(C)C(C)=O)no2)s1` [Example 86] here?
A: < 0.1 µM

Q: How did the IC50 turn out when `CC(=O)Nc1nc(C)c(-c2nc(CC(C)(C)O)no2)s1` [Example 34] was run?
A: < 0.1 µM

Source: patent US8637557B2, “Aminothiazole derivative” (Taisho Pharmaceutical Co., Ltd, priority 2009, dated 2014)
